Legend:
Test in all cases: Test D pre-/postemergence controlled growth environment herbicide test
Assay type in all cases: in vivo
Settings in all cases: scale 0 to 100
[1] = tested on: Russian thistle (Salsola kali)
Outline: (§1)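 Visual injury scored 0–100 (100 = complete control) against untreated controls, 14–21 d after treatment in a controlled growth environment. Compounds, formulated in non-phytotoxic solvent with surfactant, were applied preemergence to silt loam soil or postemergence to 1- to 4-leaf plants (2–18 cm) in peat-based medium.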

[2] = tested on: barley, spring (spring barley, Hordeum vulgare)
Outline: as §1

[3] = tested on: blackgrass (Alopecurus myosuroides)
Outline: as §1

[4] = tested on: canarygrass (Phalaris minor)
Outline: as §1

[5] = tested on: deadnettle (henbit deadnettle, Lamium amplexicaule)
Outline: as §1

[6] = tested on: field violet (Viola arvensis)
Outline: as §1

[7] = tested on: galium (catchweed bedstraw, Galium aparine)
Outline: as §1

kochia (Kochia scoparia) = tested on: kochia (Kochia scoparia)
Outline: as §1

[8] = tested on: lambsquarters (Chenopodium album)
Outline: as §1

[9] = tested on: ryegrass, Italian (Italian ryegrass, Lolium multiflorum)
Outline: as §1

[10] = tested on: wheat, spring (spring wheat, Triticum aestivum)
Outline: as §1

For `Cc1cc(=O)n(-c2ccc(C(F)(F)F)cc2)nc1Cc1ccnc(C(F)(F)F)c1` [Compound 2, 5-methyl-2-[4-(trifluoromethyl)phenyl]-6-[[2-(trifluoromethyl)-4-pyridinyl]methyl]-3(2H)-pyridazinone], which Plant response rating ([1]; Postemergence, 62 g ai/ha) is on record?
Its Plant response rating is 25.

And the Plant response rating ([1]; Postemergence, 250 g ai/ha)?
The Plant response rating was 80.

What about the Plant response rating ([1]; Postemergence, 500 g ai/ha) of the same molecule?
The Plant response rating was 100.

What about the Plant response rating ([1]; Preemergence, 62 g ai/ha) of the same molecule?
Its Plant response rating is 0.

And the Plant response rating ([1]; Preemergence, 125 g ai/ha)?
The Plant response rating was 100.

What about the Plant response rating ([1]; Preemergence, 250 g ai/ha) of the same molecule?
The Plant response rating was 100.

And the Plant response rating ([1]; Preemergence, 500 g ai/ha)?
The Plant response rating was 100.

And the Plant response rating ([2]; Postemergence, 31 g ai/ha)?
Its Plant response rating is 10.

What about the Plant response rating ([2]; Postemergence, 62 g ai/ha) of the same molecule?
The Plant response rating was 10.

What about the Plant response rating ([2]; Postemergence, 125 g ai/ha) of the same molecule?
Its Plant response rating is 10.

And the Plant response rating ([2]; Postemergence, 250 g ai/ha)?
The Plant response rating was 15.

And the Plant response rating ([2]; Postemergence, 500 g ai/ha)?
Its Plant response rating is 25.

What about the Plant response rating ([2]; Preemergence, 31 g ai/ha) of the same molecule?
The Plant response rating was 0.

And the Plant response rating ([2]; Preemergence, 62 g ai/ha)?
Its Plant response rating is 0.

What about the Plant response rating ([2]; Preemergence, 125 g ai/ha) of the same molecule?
Its Plant response rating is 0.

And the Plant response rating ([2]; Preemergence, 250 g ai/ha)?
The Plant response rating was 25.

What about the Plant response rating ([2]; Preemergence, 500 g ai/ha) of the same molecule?
The Plant response rating was 50.

What about the Plant response rating ([3]; Postemergence, 31 g ai/ha) of the same molecule?
The Plant response rating was 5.

What about the Plant response rating ([3]; Postemergence, 62 g ai/ha) of the same molecule?
The Plant response rating was 15.

And the Plant response rating ([3]; Postemergence, 125 g ai/ha)?
Its Plant response rating is 20.

And the Plant response rating ([3]; Postemergence, 250 g ai/ha)?
The Plant response rating was 30.

And the Plant response rating ([3]; Postemergence, 500 g ai/ha)?
Its Plant response rating is 50.

And the Plant response rating ([3]; Preemergence, 31 g ai/ha)?
The Plant response rating was 5.

What about the Plant response rating ([3]; Preemergence, 62 g ai/ha) of the same molecule?
The Plant response rating was 20.

What about the Plant response rating ([3]; Preemergence, 125 g ai/ha) of the same molecule?
Its Plant response rating is 60.

And the Plant response rating ([3]; Preemergence, 250 g ai/ha)?
The Plant response rating was 60.

What about the Plant response rating ([3]; Preemergence, 500 g ai/ha) of the same molecule?
The Plant response rating was 80.

What about the Plant response rating ([4]; Postemergence, 31 g ai/ha) of the same molecule?
Its Plant response rating is 20.

And the Plant response rating ([4]; Postemergence, 62 g ai/ha)?
Its Plant response rating is 20.

What about the Plant response rating ([4]; Postemergence, 125 g ai/ha) of the same molecule?
The Plant response rating was 20.

And the Plant response rating ([4]; Postemergence, 250 g ai/ha)?
The Plant response rating was 20.

And the Plant response rating ([4]; Postemergence, 500 g ai/ha)?
Its Plant response rating is 25.

And the Plant response rating ([4]; Preemergence, 31 g ai/ha)?
Its Plant response rating is 0.

What about the Plant response rating ([4]; Preemergence, 62 g ai/ha) of the same molecule?
Its Plant response rating is 25.

What about the Plant response rating ([4]; Preemergence, 125 g ai/ha) of the same molecule?
The Plant response rating was 40.

What about the Plant response rating ([4]; Preemergence, 250 g ai/ha) of the same molecule?
Its Plant response rating is 40.

And the Plant response rating ([4]; Preemergence, 500 g ai/ha)?
Its Plant response rating is 85.

And the Plant response rating ([5]; Postemergence, 31 g ai/ha)?
Its Plant response rating is 40.

And the Plant response rating ([5]; Postemergence, 62 g ai/ha)?
The Plant response rating was 40.

And the Plant response rating ([5]; Postemergence, 125 g ai/ha)?
The Plant response rating was 70.

What about the Plant response rating ([5]; Postemergence, 250 g ai/ha) of the same molecule?
The Plant response rating was 75.

What about the Plant response rating ([5]; Postemergence, 500 g ai/ha) of the same molecule?
Its Plant response rating is 90.

And the Plant response rating ([5]; Preemergence, 31 g ai/ha)?
Its Plant response rating is 100.

What about the Plant response rating ([5]; Preemergence, 62 g ai/ha) of the same molecule?
Its Plant response rating is 100.

What about the Plant response rating ([5]; Preemergence, 125 g ai/ha) of the same molecule?
Its Plant response rating is 100.

And the Plant response rating ([5]; Preemergence, 250 g ai/ha)?
The Plant response rating was 100.

And the Plant response rating ([5]; Preemergence, 500 g ai/ha)?
Its Plant response rating is 100.

And the Plant response rating ([6]; Postemergence, 31 g ai/ha)?
Its Plant response rating is 50.

And the Plant response rating ([6]; Postemergence, 62 g ai/ha)?
Its Plant response rating is 90.

What about the Plant response rating ([6]; Postemergence, 125 g ai/ha) of the same molecule?
The Plant response rating was 100.

And the Plant response rating ([6]; Postemergence, 250 g ai/ha)?
Its Plant response rating is 100.

What about the Plant response rating ([6]; Postemergence, 500 g ai/ha) of the same molecule?
The Plant response rating was 100.

And the Plant response rating ([6]; Preemergence, 31 g ai/ha)?
Its Plant response rating is 60.

What about the Plant response rating ([6]; Preemergence, 62 g ai/ha) of the same molecule?
The Plant response rating was 80.

And the Plant response rating ([6]; Preemergence, 125 g ai/ha)?
Its Plant response rating is 90.

And the Plant response rating ([6]; Preemergence, 250 g ai/ha)?
Its Plant response rating is 100.

And the Plant response rating ([6]; Preemergence, 500 g ai/ha)?
The Plant response rating was 100.

What about the Plant response rating ([7]; Postemergence, 31 g ai/ha) of the same molecule?
Its Plant response rating is 40.

And the Plant response rating ([7]; Postemergence, 62 g ai/ha)?
Its Plant response rating is 40.

And the Plant response rating ([7]; Postemergence, 125 g ai/ha)?
Its Plant response rating is 50.

What about the Plant response rating ([7]; Postemergence, 250 g ai/ha) of the same molecule?
Its Plant response rating is 75.

And the Plant response rating ([7]; Postemergence, 500 g ai/ha)?
The Plant response rating was 85.

And the Plant response rating ([7]; Preemergence, 31 g ai/ha)?
The Plant response rating was 0.

And the Plant response rating ([7]; Preemergence, 125 g ai/ha)?
The Plant response rating was 75.

What about the Plant response rating ([7]; Preemergence, 250 g ai/ha) of the same molecule?
The Plant response rating was 100.

What about the Plant response rating ([7]; Preemergence, 500 g ai/ha) of the same molecule?
The Plant response rating was 100.

What about the Plant response rating (kochia (Kochia scoparia); Postemergence, 31 g ai/ha) of the same molecule?
The Plant response rating was 40.

And the Plant response rating (kochia (Kochia scoparia); Postemergence, 62 g ai/ha)?
The Plant response rating was 70.

What about the Plant response rating (kochia (Kochia scoparia); Postemergence, 125 g ai/ha) of the same molecule?
Its Plant response rating is 80.

And the Plant response rating (kochia (Kochia scoparia); Postemergence, 250 g ai/ha)?
The Plant response rating was 85.

And the Plant response rating (kochia (Kochia scoparia); Postemergence, 500 g ai/ha)?
The Plant response rating was 85.

What about the Plant response rating (kochia (Kochia scoparia); Preemergence, 31 g ai/ha) of the same molecule?
Its Plant response rating is 20.

And the Plant response rating (kochia (Kochia scoparia); Preemergence, 62 g ai/ha)?
Its Plant response rating is 30.

What about the Plant response rating (kochia (Kochia scoparia); Preemergence, 125 g ai/ha) of the same molecule?
The Plant response rating was 100.

And the Plant response rating (kochia (Kochia scoparia); Preemergence, 250 g ai/ha)?
The Plant response rating was 100.

What about the Plant response rating (kochia (Kochia scoparia); Preemergence, 500 g ai/ha) of the same molecule?
Its Plant response rating is 100.

What about the Plant response rating ([8]; Postemergence, 31 g ai/ha) of the same molecule?
The Plant response rating was 20.

And the Plant response rating ([8]; Postemergence, 62 g ai/ha)?
Its Plant response rating is 20.

And the Plant response rating ([8]; Postemergence, 125 g ai/ha)?
The Plant response rating was 40.

What about the Plant response rating ([8]; Postemergence, 250 g ai/ha) of the same molecule?
The Plant response rating was 80.

And the Plant response rating ([8]; Postemergence, 500 g ai/ha)?
Its Plant response rating is 90.

What about the Plant response rating ([8]; Preemergence, 31 g ai/ha) of the same molecule?
Its Plant response rating is 20.

And the Plant response rating ([8]; Preemergence, 62 g ai/ha)?
Its Plant response rating is 75.

And the Plant response rating ([8]; Preemergence, 125 g ai/ha)?
Its Plant response rating is 75.

What about the Plant response rating ([8]; Preemergence, 250 g ai/ha) of the same molecule?
The Plant response rating was 90.

And the Plant response rating ([8]; Preemergence, 500 g ai/ha)?
The Plant response rating was 90.

And the Plant response rating ([9]; Postemergence, 31 g ai/ha)?
Its Plant response rating is 0.

What about the Plant response rating ([9]; Postemergence, 62 g ai/ha) of the same molecule?
Its Plant response rating is 10.

What about the Plant response rating ([9]; Postemergence, 125 g ai/ha) of the same molecule?
The Plant response rating was 15.

And the Plant response rating ([9]; Postemergence, 250 g ai/ha)?
The Plant response rating was 20.

And the Plant response rating ([9]; Postemergence, 500 g ai/ha)?
The Plant response rating was 25.

What about the Plant response rating ([9]; Preemergence, 31 g ai/ha) of the same molecule?
Its Plant response rating is 0.

What about the Plant response rating ([9]; Preemergence, 62 g ai/ha) of the same molecule?
Its Plant response rating is 0.

What about the Plant response rating ([9]; Preemergence, 125 g ai/ha) of the same molecule?
Its Plant response rating is 25.

What about the Plant response rating ([9]; Preemergence, 250 g ai/ha) of the same molecule?
Its Plant response rating is 30.

And the Plant response rating ([9]; Preemergence, 500 g ai/ha)?
Its Plant response rating is 35.

And the Plant response rating ([10]; Postemergence, 31 g ai/ha)?
The Plant response rating was 10.

And the Plant response rating ([10]; Postemergence, 62 g ai/ha)?
Its Plant response rating is 10.

What about the Plant response rating ([10]; Postemergence, 125 g ai/ha) of the same molecule?
The Plant response rating was 10.

And the Plant response rating ([10]; Postemergence, 250 g ai/ha)?
Its Plant response rating is 15.

What about the Plant response rating ([10]; Postemergence, 500 g ai/ha) of the same molecule?
Its Plant response rating is 20.

And the Plant response rating ([10]; Preemergence, 31 g ai/ha)?
The Plant response rating was 0.

What about the Plant response rating ([10]; Preemergence, 62 g ai/ha) of the same molecule?
Its Plant response rating is 0.

And the Plant response rating ([10]; Preemergence, 125 g ai/ha)?
The Plant response rating was 15.

And the Plant response rating ([10]; Preemergence, 250 g ai/ha)?
The Plant response rating was 30.

What about the Plant response rating ([10]; Preemergence, 500 g ai/ha) of the same molecule?
Its Plant response rating is 50.

Source: patent publication US10202361B2, “Pyridazinones as herbicides” (E I DU PONT DE NEMOURS AND COMPANY, priority 2014, dated 2019)
